From ChEMBL document CHEMBL4806959, “Antagonistic peptides for frizzled-1 and frizzled-2” (2015)
Activity calls are given as the source filed them. Residues, ends and D or L forms follow the SMILES beside them.

What was measured:
[1] = target: Frizzled-1 (Homo sapiens) (UniProt Q9UP38); assay: Antagonist activity at Wnt3a-stimulated frizzled-1 (unknown origin) expressed in human HEK293superTOP flash cells at 10 nM incubated for 24 hrs by luciferase reporter gene assay; type: functional, cell-based; conditions: HEK293
Chain of Frizzled-1 (Homo sapiens) (Q9UP38 70-647 limits assumed): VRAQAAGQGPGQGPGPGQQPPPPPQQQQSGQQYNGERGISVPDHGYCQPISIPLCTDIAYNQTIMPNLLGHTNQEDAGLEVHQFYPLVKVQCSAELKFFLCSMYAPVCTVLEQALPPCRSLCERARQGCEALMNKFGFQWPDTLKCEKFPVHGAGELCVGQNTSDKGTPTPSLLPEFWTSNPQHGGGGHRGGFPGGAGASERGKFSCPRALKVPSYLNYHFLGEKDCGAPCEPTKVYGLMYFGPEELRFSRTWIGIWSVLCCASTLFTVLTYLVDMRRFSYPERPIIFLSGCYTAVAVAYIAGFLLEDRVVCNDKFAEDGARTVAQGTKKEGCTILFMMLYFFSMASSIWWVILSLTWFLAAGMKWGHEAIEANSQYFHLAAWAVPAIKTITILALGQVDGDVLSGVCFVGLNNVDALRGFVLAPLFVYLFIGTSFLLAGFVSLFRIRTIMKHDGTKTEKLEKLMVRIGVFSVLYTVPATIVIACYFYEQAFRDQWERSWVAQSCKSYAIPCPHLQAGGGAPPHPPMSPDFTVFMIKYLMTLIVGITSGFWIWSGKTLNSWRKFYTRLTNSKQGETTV

[2] = target: Frizzled-1 (Rattus norvegicus) (UniProt Q08463); assay: Antagonist activity at Wnt3a-stimulated rat frizzled-1 expressed in CHO cells up to 10 uM incubated for 24 hrs by luciferase reporter gene assay; type: cell-based; conditions: dose microM <=10, time 24.0 hrs
Chain of Frizzled-1 (Rattus norvegicus) (Q08463 whole entry): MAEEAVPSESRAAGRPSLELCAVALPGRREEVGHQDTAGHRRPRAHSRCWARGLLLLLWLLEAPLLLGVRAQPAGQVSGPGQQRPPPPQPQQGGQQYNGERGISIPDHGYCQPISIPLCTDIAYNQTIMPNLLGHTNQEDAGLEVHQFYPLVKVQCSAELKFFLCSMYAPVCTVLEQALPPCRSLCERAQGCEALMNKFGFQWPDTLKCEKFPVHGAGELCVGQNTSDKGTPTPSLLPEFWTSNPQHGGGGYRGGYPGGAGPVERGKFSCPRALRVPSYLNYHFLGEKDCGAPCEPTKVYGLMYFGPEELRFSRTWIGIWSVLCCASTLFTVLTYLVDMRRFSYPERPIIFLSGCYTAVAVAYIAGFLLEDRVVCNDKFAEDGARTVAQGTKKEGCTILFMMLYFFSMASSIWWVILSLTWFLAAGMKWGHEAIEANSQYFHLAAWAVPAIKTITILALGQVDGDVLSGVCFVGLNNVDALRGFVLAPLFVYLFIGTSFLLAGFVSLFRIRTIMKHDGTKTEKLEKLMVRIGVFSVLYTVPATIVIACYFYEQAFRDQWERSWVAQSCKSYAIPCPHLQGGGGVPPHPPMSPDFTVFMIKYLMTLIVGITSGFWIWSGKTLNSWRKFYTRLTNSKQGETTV

[3] = target: Frizzled-2 (Rattus norvegicus) (UniProt Q08464); assay: Antagonist activity at Wnt3a-stimulated rat frizzled-2 expressed in CHO cells up to 10 uM incubated for 24 hrs by luciferase reporter gene assay; type: cell-based; conditions: dose microM <=10, time 24.0 hrs
Chain of Frizzled-2 (Rattus norvegicus) (Q08464 29-570 limits assumed): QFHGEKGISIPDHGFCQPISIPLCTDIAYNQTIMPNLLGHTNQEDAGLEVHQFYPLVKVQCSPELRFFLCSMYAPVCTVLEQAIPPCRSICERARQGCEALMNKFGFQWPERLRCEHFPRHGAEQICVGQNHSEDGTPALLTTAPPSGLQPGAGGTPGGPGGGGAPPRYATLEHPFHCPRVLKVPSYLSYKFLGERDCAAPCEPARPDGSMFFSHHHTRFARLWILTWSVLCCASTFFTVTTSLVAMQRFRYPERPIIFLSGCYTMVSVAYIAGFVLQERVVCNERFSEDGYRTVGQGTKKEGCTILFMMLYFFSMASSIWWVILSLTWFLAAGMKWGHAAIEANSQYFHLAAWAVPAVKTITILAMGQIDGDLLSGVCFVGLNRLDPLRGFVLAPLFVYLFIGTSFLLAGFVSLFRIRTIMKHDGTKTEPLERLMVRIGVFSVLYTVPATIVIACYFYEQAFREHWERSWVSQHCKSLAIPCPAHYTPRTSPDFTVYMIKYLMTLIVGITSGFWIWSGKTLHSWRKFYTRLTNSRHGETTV

[4] = target: Frizzled-2 (Rattus norvegicus) (UniProt Q08464); assay: Antagonist activity at Wnt3a-stimulated rat frizzled-2 expressed in African green monkey COS7 cells up to 10 uM incubated for 24 hrs by luciferase reporter gene assay; type: cell-based; conditions: dose microM <=10, time 24.0 hrs
Frizzled-2 = Frizzled-2 (Homo sapiens, UniProt Q14332); assay: Antagonist activity at Wnt3a-stimulated frizzled-2 (unknown origin) expressed in human HEK293superTOP flash cells at 10 nM incubated for 24 hrs by luciferase reporter gene assay; type: functional, cell-based; conditions: HEK293
Chain of Frizzled-2 (Q14332 24-565 limits assumed): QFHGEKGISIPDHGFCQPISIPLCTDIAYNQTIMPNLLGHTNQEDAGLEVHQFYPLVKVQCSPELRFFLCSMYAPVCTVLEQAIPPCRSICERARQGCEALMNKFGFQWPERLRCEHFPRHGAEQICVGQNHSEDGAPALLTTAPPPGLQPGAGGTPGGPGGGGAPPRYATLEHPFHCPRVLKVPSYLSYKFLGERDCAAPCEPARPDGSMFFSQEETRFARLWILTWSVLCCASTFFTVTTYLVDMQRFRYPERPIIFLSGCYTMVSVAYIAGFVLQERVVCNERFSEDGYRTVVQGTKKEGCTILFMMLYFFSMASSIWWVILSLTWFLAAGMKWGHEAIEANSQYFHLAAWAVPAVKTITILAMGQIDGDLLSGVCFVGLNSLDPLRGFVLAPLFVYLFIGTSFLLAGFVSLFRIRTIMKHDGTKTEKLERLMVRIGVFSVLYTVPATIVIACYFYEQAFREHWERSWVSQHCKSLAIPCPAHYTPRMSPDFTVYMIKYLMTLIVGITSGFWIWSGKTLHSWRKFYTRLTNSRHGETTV

[5] = target: Frizzled-1 (Rattus norvegicus) (UniProt Q08463); assay: Antagonist activity at Wnt3a-stimulated rat frizzled-1 expressed in African green monkey COS7 cells up to 10 uM incubated for 24 hrs by luciferase reporter gene assay; type: cell-based; conditions: dose microM <=10, time 24.0 hrs

Measured: inhibition

CSCC[C@H](NC(=O)CNC(=O)[C@H](CCC(=O)O)NC(=O)[C@H](CO)NC(=O)[C@@H](NC(=O)[C@H](CCCCN)NC(=O)[C@H](CC(N)=O)NC(=O)[C@H](C)NC(C)=O)[C@@H](C)O)C(=O)N[C@@H](CC(=O)O)C(=O)NCC(=O)N[C@@H](CS)C(=O)N[C@@H](CCC(=O)O)C(=O)N[C@@H](CC(C)C)C(N)=O (Ac-ANKTSEGMDGCEL-NH2)
inactive: all assays above

CSCC[C@H](NC(=O)CNC(=O)[C@H](CCC(=O)O)NC(=O)[C@H](CO)NC(=O)[C@@H](NC(=O)[C@H](CCCCN)NC(=O)[C@H](C)NC(=O)[C@H](CS)NC(C)=O)[C@@H](C)O)C(=O)N[C@@H](CC(=O)O)C(=O)NCC(=O)N[C@@H](CS)C(=O)N[C@@H](CCC(=O)O)C(=O)N[C@@H](CC(C)C)C(N)=O (Ac-CAKTSEGMDGCEL-NH2)
inactive: all assays above

CSCC[C@H](NC(=O)CNC(=O)[C@H](CCC(=O)O)NC(=O)[C@H](CO)NC(=O)[C@@H](NC(=O)[C@H](C)NC(=O)[C@H](CC(N)=O)NC(=O)[C@H](CS)NC(C)=O)[C@@H](C)O)C(=O)N[C@@H](CC(=O)O)C(=O)NCC(=O)N[C@@H](CS)C(=O)N[C@@H](CCC(=O)O)C(=O)N[C@@H](CC(C)C)C(N)=O (Ac-CNATSEGMDGCEL-NH2)
inactive: all assays above

CSCC[C@H](NC(=O)[C@H](C)NC(=O)[C@H](CCC(=O)O)NC(=O)[C@H](CO)NC(=O)[C@H](C)NC(=O)[C@H](CCCCN)NC(=O)[C@H](CC(N)=O)NC(=O)[C@H](CS)NC(C)=O)C(=O)N[C@@H](C)C(=O)NCC(=O)N[C@@H](CS)C(=O)N[C@@H](CCC(=O)O)C(=O)N[C@@H](CC(C)C)C(N)=O (Ac-CNKASEAMAGCEL-NH2)
inactive: all assays above

CSCC[C@H](NC(=O)CNC(=O)[C@H](CCC(=O)O)NC(=O)[C@H](CO)NC(=O)[C@H](C)NC(=O)[C@H](CCCCN)NC(=O)[C@H](CC(N)=O)NC(=O)[C@H](CS)NC(C)=O)C(=O)N[C@@H](CC(=O)O)C(=O)NCC(=O)N[C@@H](CS)C(=O)N[C@@H](CCC(=O)O)C(=O)N[C@@H](CC(C)C)C(N)=O (Ac-CNKASEGMDGCEL-NH2)
inactive: all assays above

CSCC[C@H](NC(=O)CNC(=O)[C@H](CCC(=O)O)NC(=O)[C@H](C)NC(=O)[C@@H](NC(=O)[C@H](CCCCN)NC(=O)[C@H](CC(N)=O)NC(=O)[C@H](CS)NC(C)=O)[C@@H](C)O)C(=O)N[C@@H](CC(=O)O)C(=O)NCC(=O)N[C@@H](CS)C(=O)N[C@@H](CCC(=O)O)C(=O)N[C@@H](CC(C)C)C(N)=O (Ac-CNKTAEGMDGCEL-NH2)
inactive: all assays above

CSCC[C@H](NC(=O)CNC(=O)[C@H](C)NC(=O)[C@H](CO)NC(=O)[C@@H](NC(=O)[C@H](CCCCN)NC(=O)[C@H](CC(N)=O)NC(=O)[C@H](CS)NC(C)=O)[C@@H](C)O)C(=O)N[C@@H](CC(=O)O)C(=O)NCC(=O)N[C@@H](CS)C(=O)N[C@@H](CCC(=O)O)C(=O)N[C@@H](CC(C)C)C(N)=O (Ac-CNKTSAGMDGCEL-NH2)
inactive: all assays above

CSCC[C@H](NC(=O)[C@H](C)NC(=O)[C@H](CCC(=O)O)NC(=O)[C@H](CO)NC(=O)[C@@H](NC(=O)[C@H](CCCCN)NC(=O)[C@H](CC(N)=O)NC(=O)[C@H](CS)NC(C)=O)[C@@H](C)O)C(=O)N[C@@H](CC(=O)O)C(=O)NCC(=O)N[C@@H](CS)C(=O)N[C@@H](CCC(=O)O)C(=O)N[C@@H](CC(C)C)C(N)=O (Ac-CNKTSEAMDGCEL-NH2)
inactive: all assays above

CC(=O)N[C@@H](CS)C(=O)N[C@@H](CC(N)=O)C(=O)N[C@@H](CCCCN)C(=O)N[C@H](C(=O)N[C@@H](CO)C(=O)N[C@@H](CCC(=O)O)C(=O)NCC(=O)N[C@@H](C)C(=O)N[C@@H](CC(=O)O)C(=O)NCC(=O)N[C@@H](CS)C(=O)N[C@@H](CCC(=O)O)C(=O)N[C@@H](CC(C)C)C(N)=O)[C@@H](C)O (Ac-CNKTSEGADGCEL-NH2)
inactive: all assays above

CSCC[C@H](NC(=O)CNC(=O)[C@H](CCC(=O)O)NC(=O)[C@H](CO)NC(=O)[C@@H](NC(=O)[C@H](CCCCN)NC(=O)[C@H](CC(N)=O)NC(=O)[C@H](CS)NC(C)=O)[C@@H](C)O)C(=O)N[C@@H](C)C(=O)NCC(=O)N[C@@H](CS)C(=O)N[C@@H](CCC(=O)O)C(=O)N[C@@H](CC(C)C)C(N)=O (Ac-CNKTSEGMAGCEL-NH2)
inactive: all assays above

CSCC[C@H](NC(=O)CNC(=O)[C@H](CCC(=O)O)NC(=O)[C@H](CO)NC(=O)[C@@H](NC(=O)[C@H](CCCCN)NC(=O)[C@H](CC(N)=O)NC(=O)[C@H](CS)NC(C)=O)[C@@H](C)O)C(=O)N[C@@H](CC(=O)O)C(=O)N[C@@H](C)C(=O)N[C@@H](CS)C(=O)N[C@@H](CCC(=O)O)C(=O)N[C@@H](CC(C)C)C(N)=O (Ac-CNKTSEGMDACEL-NH2)
inactive: all assays above
